Measured values as given in the SangsterLogP compilation.

Assay: method code SF, from DOI: 10.1002/jps.2600780616, PMID: 2527297
Settings: pH 7.4

In order of rising logD:
1. CS(=O)(=O)c1ccc2oc(N(N)CCC#N)nc2c1  -0.58
2. CS(=O)c1ccc2oc(N(N)CCC#N)nc2c1 (centres undefined)  -0.53
3. N#CCCN(N)c1nc2cc(C#N)ccc2o1  0.42
4. N#CCCN(N)c1nc2ccccc2o1  0.9
5. COc1ccc2oc(N(N)CCC#N)nc2c1  0.98
6. N#CCCN(N)c1nc2cc(F)ccc2o1  1.09
7. Cc1ccc2oc(N(N)CCC#N)nc2c1  1.48
8. CSc1ccc2oc(N(N)CCC#N)nc2c1  1.5
9. N#CCCN(N)c1nc2cc(Cl)ccc2o1  1.72
10. N#CCCN(N)c1nc2cc(C(F)(F)F)ccc2o1  1.72
11. CCc1ccc2oc(N(N)CCC#N)nc2c1  1.91
12. N#CCCN(N)c1nc2cc(C(=O)c3ccccc3)ccc2o1  1.94
13. N#CCCN(N)c1nc2cc(OCc3ccccc3)ccc2o1  2.52
14. CC(C)(C)c1ccc2oc(N(N)CCC#N)nc2c1  2.82
